Measured values from ChEMBL document CHEMBL5338715, “Identification of (S)-1-(2-(2,4-difluorophenyl)-4-oxothiazolidin-3-yl)-3-(4-((7-(3-(4-ethylpiperazin-1-yl)propoxy)-6-methoxyquinolin-4-yl)oxy)-3,5-difluorophenyl)urea as a potential anti-colorectal cancer agent” (Eur J Med Chem, 2022).

Experiments:
HT-29 = assay: cells; settings: Homo sapiens
HCT-116 = assay: cells; settings: Homo sapiens
COLO 205 = assay: cells; settings: Homo sapiens
LoVo = assay: cells; settings: Homo sapiens
BaF3 [1] = assay: cells; settings: Mus musculus, BaF3, 72 h
BaF3 [2] = assay: cells; settings: Mus musculus, BaF3, 72 h; remark: listed apart in the source
[3] = Cytotoxicity against human FHC cells assessed as cell growth inhibition by MTT assay; type: toxicity, cell-based
[4] = Metabolic stability in human liver microsomes assessed as half life at 1 uM measured upto 45 mins in presence of NADPH by LC-MS/MS analysis; type: ADME, Microsome
[5] = Metabolic stability in human liver microsomes assessed as intrinsic clearance at 1 uM measured upto 45 mins in presence of NADPH by LC-MS/MS analysis; type: ADME, Microsome; settings: read-out: CLH
[6] = Metabolic stability in human liver microsomes assessed as parent compound remaining at 1 uM measured after 45 mins in presence of NADPH by LC-MS/MS analysis; type: ADME, Microsome; settings: read-out: Stability
EBC-1 = assay: cells; settings: Homo sapiens
cells = settings: Homo sapiens, TT
SNU-5 = assay: cells; settings: Homo sapiens
MKN-45 = assay: cells; settings: Homo sapiens

| Compound | IC50 (HT-29) | IC50 (HCT-116) | IC50 (COLO 205) | IC50 (LoVo) | IC50 (BaF3 [1]) | IC50 (BaF3 [2]) | IC50 [3] | half-life at 1 µM [4] | CLint scaled at 1 µM [5] | remaining at 0.75 h, 1 µM [6] | IC50 (EBC-1) | IC50 (cells) | IC50 (SNU-5) | IC50 (MKN-45) |
| --- | --- | --- | --- | --- | --- | --- | --- | --- | --- | --- | --- | --- | --- | --- |
| CNC(=O)c1c(C)oc2cc(Oc3ncnc4cc(OC)c(OC)cc34)ccc12 [FRUQUINTINIB] | 1500 nM | 800 nM | > 10000 nM | > 10000 nM |  |  |  |  |  |  |  |  |  |  |
| COc1cc2c(Oc3ccc(NC(=O)NN4C(=O)CSC4c4c(F)cccc4F)cc3)ccnc2cc1OCCCN1CCCC1 (stereo not drawn) | 160 nM | 810 nM |  |  | 66 nM | 150 nM |  |  |  |  |  |  |  |  |
| CCN(CC)CCCOc1cc2nccc(Oc3ccc(CC(=O)NN4C(=O)CSC4c4c(F)cccc4F)cc3)c2cc1OC (stereo not drawn) | 1600 nM | 7800 nM |  |  | 1300 nM | 2600 nM |  |  |  |  |  |  |  |  |
| CCN1CCN(CCCOc2cc3nccc(Oc4c(F)cc(NC(=O)NN5C(=O)CSC5c5c(F)cccc5F)cc4F)c3cc2OC)CC1 (stereo not drawn) | 69 nM | 540 nM | 48 nM | 930 nM | 45 nM | 76 nM | > 10000 nM | 1.47 h | 19.8 mL/min/kg | 70.1% | 160 nM | 2300 nM | 270 nM | 610 nM |
| CCN(CC)CCCOc1cc2nccc(Oc3ccc(NC(=O)NN4C(=O)CSC4c4c(F)cccc4F)cc3C)c2cc1OC (stereo not drawn) | 220 nM | 640 nM |  |  | 460 nM | 840 nM |  |  |  |  |  |  |  |  |
| CCN(CC)CCCOc1cc2nccc(N(C)c3ccc(NC(=O)NN4C(=O)CSC4c4c(F)cccc4F)cc3)c2cc1OC (stereo not drawn) |  | > 10000 nM |  |  | 2200 nM | 6900 nM |  |  |  |  |  |  |  |  |
